The structures appear in SMILES notation.

As usually defined, the IC50 is the concentration at which inhibition is half-maximal.

The target of the first assay is T1, CFTR (Homo sapiens, UniProt P13569).
T1 construct: endogenous in cells; host or cells: T84 human colonic cells (ECACC)
T1 sequence (P13569 whole entry): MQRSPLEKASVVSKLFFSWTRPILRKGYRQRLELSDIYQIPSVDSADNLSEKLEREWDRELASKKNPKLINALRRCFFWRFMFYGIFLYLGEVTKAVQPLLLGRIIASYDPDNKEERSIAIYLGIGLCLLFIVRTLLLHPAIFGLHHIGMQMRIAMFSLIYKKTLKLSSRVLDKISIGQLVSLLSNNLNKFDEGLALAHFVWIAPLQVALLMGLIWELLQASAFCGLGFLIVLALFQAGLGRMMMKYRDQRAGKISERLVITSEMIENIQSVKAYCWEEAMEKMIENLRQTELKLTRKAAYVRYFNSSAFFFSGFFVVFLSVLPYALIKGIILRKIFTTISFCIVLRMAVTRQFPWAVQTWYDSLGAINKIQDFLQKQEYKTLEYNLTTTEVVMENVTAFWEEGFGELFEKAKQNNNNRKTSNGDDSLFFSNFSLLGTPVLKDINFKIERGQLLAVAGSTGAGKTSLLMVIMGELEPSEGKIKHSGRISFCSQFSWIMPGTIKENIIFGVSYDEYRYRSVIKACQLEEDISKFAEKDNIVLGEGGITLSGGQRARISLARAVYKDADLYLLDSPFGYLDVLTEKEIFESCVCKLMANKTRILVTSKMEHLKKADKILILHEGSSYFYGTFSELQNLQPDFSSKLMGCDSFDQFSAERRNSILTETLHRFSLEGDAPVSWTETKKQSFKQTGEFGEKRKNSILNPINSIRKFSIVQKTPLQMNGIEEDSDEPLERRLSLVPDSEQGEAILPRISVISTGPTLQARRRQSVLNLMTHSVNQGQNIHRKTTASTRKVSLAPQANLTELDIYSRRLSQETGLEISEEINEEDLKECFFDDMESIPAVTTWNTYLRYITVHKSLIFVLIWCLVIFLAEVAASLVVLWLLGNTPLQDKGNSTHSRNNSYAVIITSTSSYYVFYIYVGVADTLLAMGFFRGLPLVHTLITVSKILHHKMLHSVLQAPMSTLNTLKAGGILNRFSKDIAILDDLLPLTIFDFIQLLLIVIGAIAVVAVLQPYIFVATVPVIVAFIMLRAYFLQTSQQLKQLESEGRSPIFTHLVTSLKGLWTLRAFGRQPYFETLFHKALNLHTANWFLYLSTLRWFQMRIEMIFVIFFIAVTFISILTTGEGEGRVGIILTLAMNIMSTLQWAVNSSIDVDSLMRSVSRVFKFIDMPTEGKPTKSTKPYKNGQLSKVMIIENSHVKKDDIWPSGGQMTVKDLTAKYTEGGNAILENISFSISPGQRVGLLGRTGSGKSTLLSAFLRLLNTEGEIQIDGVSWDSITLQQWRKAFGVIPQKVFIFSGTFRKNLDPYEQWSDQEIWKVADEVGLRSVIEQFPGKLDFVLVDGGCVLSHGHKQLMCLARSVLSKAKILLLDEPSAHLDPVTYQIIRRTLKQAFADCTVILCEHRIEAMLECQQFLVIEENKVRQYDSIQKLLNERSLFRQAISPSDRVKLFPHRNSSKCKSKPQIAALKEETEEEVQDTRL
The assay is described as follows: T84 assay (FLIPR membrane potential dye, forskolin/IBMX-stimulated CFTR channel activity). Format: cell-based. The following applies: imidazole and triazole-containing compounds (Tables 13, 14, 14′), read-out: IC50 (μM) (T84 assay). The gist of the method:
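Fluorescence from a membrane potential dye in T84 monolayers (HBSS with 10 mM Hepes) is followed each second for 150 s. Cells are exposed to test compound during the 45 min dye loading, then challenged with forskolin (10 μM) and IBMX (100 μM) to open CFTR. Inhibitors suppress the depolarization-driven fluorescence increase.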
As for `O=C(NCc1ccc(Cl)cc1)c1ncn(-c2cc(Cl)c(O)c(Cl)c2)n1` [48i, N-(4-chlorobenzyl)-1-(3,5-dichloro-4-hydroxyphenyl)-1H-1,2,4-triazole-3-carboxamide], the IC50 came out at 8.67 µM.
Consider `O=C(NCc1cccc(N2CCCCC2)c1)c1ncn(-c2cc(Cl)c(O)c(Cl)c2)n1` [38i, 1-(3,5-dichloro-4-hydroxyphenyl)-N-(3-(piperidin-1-yl)benzyl)-1H-1,2,4-triazole-3-carboxamide], for which the IC50 worked out at 5.61 µM.
Same read-out and setting: with `O=C(NCc1cccc(-c2ccccc2)c1)c1ncn(-c2cc(Cl)c(O)c(Cl)c2)n1` [25i, N-(biphenyl-3-ylmethyl)-1-(3,5-dichloro-4-hydroxyphenyl)-1H-1,2,4-triazole-3-carboxamide] the figure was 3.7 µM.

The same assay, now with this note: isoxazole-containing compounds (Table 10, 10′, 11, 11′), read-out: IC50.
Consider `O=C(c1cc(-c2cc(Cl)c(O)c(Cl)c2)on1)N1CCC(Cc2ccccc2)CC1` [12g, (4-benzylpiperidin-1-yl)(5-(3,5-dichloro-4-hydroxyphenyl)isoxazol-3-yl)methanone], for which the IC50 was 6.51 µM.

Still in this assay, the particulars now being: oxadiazole-containing compounds (a series), average of at least 2 runs unless annotated n = 1, read-out: IC50.
For `O=C(NCc1cc(C(F)(F)F)ccc1F)c1noc(-c2cc(Cl)c(O)c(Cl)c2)n1` [155a, 5-(3,5-dichloro-4-hydroxyphenyl)-N-(2-fluoro-5-(trifluoromethyl)benzyl)-1,2,4-oxadiazole-3-carboxamide], the IC50 is 2.22 µM.
With `O=C(NCc1cccc(-n2cccn2)c1)c1noc(-c2cc(Cl)c(O)c(Cl)c2)n1` [161a, N-(3-(1H-pyrazol-1-yl)benzyl)-5-(3,5-dichloro-4-hydroxyphenyl)-1,2,4-oxadiazole-3-carboxamide], the IC50 is 6.21 µM.
`CC(C)(C)C(=O)N1CCN(C(=O)c2nc(-c3cc(Br)c(O)c(Br)c3)no2)CC1` [93a, 1-(4-(3-(3,5-dibromo-4-hydroxyphenyl)-1,2,4-oxadiazole-5-carbonyl)piperazin-1-yl)-2,2-dimethylpropan-1-one]: the IC50 is 5.8 µM.
The same measure, in the same setting: the figure for `CN(C)c1cccc(CNC(=O)c2noc(-c3cc(Cl)c(O)c(Cl)c3)n2)c1` [160a, 5-(3,5-dichloro-4-hydroxyphenyl)-N-(3-(dimethylamino)benzyl)-1,2,4-oxadiazole-3-carboxamide] is 7.26 µM.
Regarding `O=C(NCc1cc(F)cc(F)c1)c1nc(-c2cc(Cl)c(O)c(Cl)c2)no1` [137a, 3-(3,5-dichloro-4-hydroxyphenyl)-N-(3,5-difluorobenzyl)-1,2,4-oxadiazole-5-carboxamide], the IC50 worked out at 24.4 µM.
In the case of `O=C(NC(c1ccccc1)c1ccccc1)c1nc(-c2cc(Br)c(O)c(Br)c2)no1` [5a, N-benzhydryl-3-(3,5-dibromo-4-hydroxyphenyl)-1,2,4-oxadiazole-5-carboxamide], the IC50 came out at 5.23 µM.
Same read-out and setting: with `CN(Cc1ccc(-c2ccc(C(F)(F)F)cn2)cc1)C(=O)c1nc(-c2cc(Cl)c(O)c(Cl)c2)no1` [174a, 3-(3,5-dichloro-4-hydroxyphenyl)-N-methyl-N-(4-(5-(trifluoromethyl)pyridin-2-yl)benzyl)-1,2,4-oxadiazole-5-carboxamide] the figure was 8.07 µM; with `O=C(NCc1cccc(Oc2ccccc2)c1)c1nc(-c2cc(Cl)c(O)c(Cl)c2)no1` [145a, 3-(3,5-dichloro-4-hydroxyphenyl)-N-(3-phenoxybenzyl)-1,2,4-oxadiazole-5-carboxamide], 9.87 µM.
For `O=C(NCc1cccc(Cl)c1)c1noc(-c2cc(Cl)c(O)c(Cl)c2)n1` [86a, N-(3-chlorobenzyl)-5-(3,5-dichloro-4-hydroxyphenyl)-1,2,4-oxadiazole-3-carboxamide], the IC50 worked out at 2.12 µM.
Still for that read-out and setting: the figure for `O=C(NCc1ccc(Cl)cc1)c1nc(-c2cc(Br)c(O)c(Br)c2)no1` [40a, N-(4-chlorobenzyl)-3-(3,5-dibromo-4-hydroxyphenyl)-1,2,4-oxadiazole-5-carboxamide] is 27.1 µM.
Still for that read-out and setting: the figure for `CN(Cc1cccc(-c2cccnc2)c1)C(=O)c1nc(-c2cc(Cl)c(O)c(Cl)c2)no1` [185a, 3-(3,5-dichloro-4-hydroxyphenyl)-N-methyl-N-(3-(pyridin-3-yl)benzyl)-1,2,4-oxadiazole-5-carboxamide] is 5.11 µM.
Turning to `O=C(NCc1cc(F)cc(C(F)(F)F)c1)c1nc(-c2cc(Cl)c(O)c(Cl)c2)no1` [154a, 3-(3,5-dichloro-4-hydroxyphenyl)-N-(3-fluoro-5-(trifluoromethyl)benzyl)-1,2,4-oxadiazole-5-carboxamide], the IC50 came out at 3.89 µM.
With `COc1ccc(Oc2ccc(CNC(=O)c3nc(-c4cc(Cl)c(O)c(Cl)c4)no3)cc2)cc1F` [183a, 3-(3,5-dichloro-4-hydroxyphenyl)-N-(4-(3-fluoro-4-methoxyphenoxy)benzyl)-1,2,4-oxadiazole-5-carboxamide], the IC50 was 11.7 µM.
Still for that read-out and setting: with `CN(Cc1ccc(C(C)(C)C)cc1)C(=O)c1nc(-c2cc(Cl)c(O)c(Cl)c2)no1` [148a, N-(4-tert-butylbenzyl)-3-(3,5-dichloro-4-hydroxyphenyl)-N-methyl-1,2,4-oxadiazole-5-carboxamide] the figure was 8.26 µM; with `O=C(NCc1ccc(F)c(Cl)c1)c1nc(-c2cc(Cl)c(O)c(Cl)c2)no1` [130a, N-(3-chloro-4-fluorobenzyl)-3-(3,5-dichloro-4-hydroxyphenyl)-1,2,4-oxadiazole-5-carboxamide], 9.44 µM.
The same measure, in the same setting: the figure for `O=C(NCc1ccc(Oc2cc(F)cc(Br)c2)cc1)c1nc(-c2cc(Cl)c(O)c(Cl)c2)no1` [201a, N-(4-(3-bromo-5-fluorophenoxy)benzyl)-3-(3,5-dichloro-4-hydroxyphenyl)-1,2,4-oxadiazole-5-carboxamide] is 17.9 µM; for `O=C(NCc1cccc(F)c1)c1noc(-c2cc(Cl)c(O)c(Cl)c2)n1` [116a, 5-(3,5-dichloro-4-hydroxyphenyl)-N-(3-fluorobenzyl)-1,2,4-oxadiazole-3-carboxamide] it is 18 µM; for `O=C(NCc1cccc(OC(F)F)c1)c1noc(-c2cc(Cl)c(O)c(Cl)c2)n1` [163a, 5-(3,5-dichloro-4-hydroxyphenyl)-N-(3-(difluoromethoxy)benzyl)-1,2,4-oxadiazole-3-carboxamide] it is 11.5 µM.
On the same count and under the same terms, with `O=C(c1nc(-c2cc(Cl)c(O)c(Cl)c2)no1)N(Cc1ccccc1)Cc1cccnc1` [167a, N-benzyl-3-(3,5-dichloro-4-hydroxyphenyl)-N-(pyridin-3-ylmethyl)-1,2,4-oxadiazole-5-carboxamide] the figure was 9.61 µM; with `O=C(NCc1ccc(Cl)c(C(F)(F)F)c1)c1nc(-c2cc(Br)c(O)c(Br)c2)no1` [30a, N-(4-chloro-3-(trifluoromethyl)benzyl)-3-(3,5-dibromo-4-hydroxyphenyl)-1,2,4-oxadiazole-5-carboxamide], 16.2 µM.
Regarding `O=C(c1nc(-c2cc(Br)c(O)c(Br)c2)no1)N(Cc1cccc(C(F)(F)F)c1)Cc1cccc(C(F)(F)F)c1` [21a, 3-(3,5-dibromo-4-hydroxyphenyl)-N,N-bis(3-(trifluoromethyl)benzyl)-1,2,4-oxadiazole-5-carboxamide], the 50% inhibitory concentration (IC50) worked out at 10.9 µM.
Take `C=CCN(Cc1cccc(C(F)(F)F)c1)C(=O)c1nc(-c2cc(Br)c(O)c(Br)c2)no1` [59a, N-allyl-3-(3,5-dibromo-4-hydroxyphenyl)-N-(3-(trifluoromethyl)benzyl)-1,2,4-oxadiazole-5-carboxamide]: the IC50 came out at 3.35 µM.
Same read-out and setting: the figure for `CN(Cc1ccc(C(F)(F)F)cc1)C(=O)c1noc(-c2cc(Cl)c(O)c(Cl)c2)n1` [87a, 5-(3,5-dichloro-4-hydroxyphenyl)-N-methyl-N-(4-(trifluoromethyl)benzyl)-1,2,4-oxadiazole-3-carboxamide] is 3.42 µM; for `O=C(c1nc(-c2cc(Br)c(O)c(Br)c2)no1)N1CCC(Cc2ccccc2)CC1` [18a, (4-benzylpiperidin-1-yl)(3-(3,5-dibromo-4-hydroxyphenyl)-1,2,4-oxadiazol-5-yl)methanone] it is 12.3 µM; for `COc1ccccc1N1CCN(C(=O)c2nc(-c3cc(Br)c(O)c(Br)c3)no2)CC1` [26a, (3-(3,5-dibromo-4-hydroxyphenyl)-1,2,4-oxadiazol-5-yl)(4-(2-methoxyphenyl)piperazin-1-yl)methanone] it is 14.5 µM.
`CC(C)(C)ONC(=O)COc1c(Br)cc(-c2noc(C(=O)N3CCC(Cc4ccccc4)CC3)n2)cc1Br` [205a, 2-(4-(5-(4-benzylpiperidine-1-carbonyl)-1,2,4-oxadiazol-3-yl)-2,6-dibromophenoxy)-N-tert-butoxyacetamide]: the IC50 was 23.1 µM.
Consider `O=C(NCc1cccc(C(F)(F)F)c1)c1nc(-c2cc(Cl)c(O)c(Cl)c2)no1` [134a, 3-(3,5-dichloro-4-hydroxyphenyl)-N-(3-(trifluoromethyl)benzyl)-1,2,4-oxadiazole-5-carboxamide], for which the IC50 is 8.65 µM.
`O=C(NCc1ccc(Oc2cccc(OC(F)(F)F)c2)cc1)c1nc(-c2cc(Cl)c(O)c(Cl)c2)no1` [190a, 3-(3,5-dichloro-4-hydroxyphenyl)-N-(4-(3-(trifluoromethoxy)phenoxy)benzyl)-1,2,4-oxadiazole-5-carboxamide]: the IC50 amounted to 11 µM.
On the same count and under the same terms, with `COCCOCCN(Cc1cccc(C(F)(F)F)c1)C(=O)c1nc(-c2cc(Cl)c(O)c(Cl)c2)no1` [111a, 3-(3,5-dichloro-4-hydroxyphenyl)-N-(2-(2-methoxyethoxy)ethyl)-N-(3-(trifluoromethyl)benzyl)-1,2,4-oxadiazole-5-carboxamide] the figure was 6.14 µM.

Still in this assay, the particulars now being: thiadiazole-containing compounds (Table 12), read-out: IC50.
In the case of `Oc1c(Cl)cc(-c2nnc(Cc3cccc(Cl)c3)s2)cc1Cl` [1h, 2,6-dichloro-4-(5-(3-chlorobenzyl)-1,3,4-thiadiazol-2-yl)phenol], the IC50 came to 5.65 µM.
Take `Oc1c(Cl)cc(-c2nnc(COc3ccc(F)cc3Cl)s2)cc1Cl` [2h, 2,6-dichloro-4(5-((2-chloro-4-fluorophenoxy)methyl)-1,3,4-thiadiazol-2-yl)phenol]: the IC50 came to 5.65 µM.

(Values after patent US20100144733A1, “Compounds, compositions and methods comprising heteroaromatic derivatives” (Institute for OneWorld Health, priority 2008, published 2010).)
